Experimental data taken from patent publication US11179383B2 (Gilead Sciences, Inc., priority 2018, dated 2021).
pEC50: −log10 of the molar value.

target: T1, α4β7 integrin (Homo sapiens, UniProt P13612+P26010); experiment: α4β7 Integrin Cell Capture Assay; assay type: cell-based; settings: capture of α4β7 integrin expressing RPMI8866 cells on recombinant MadCAM-1 extracellular domain-coated plate; DMEM+0.5% FBS+0.5 mM MnCl2; read-out: EC50 α4β7
T1 construct: monitoring the capture of α4β7 integrin expressing cells on a recombinant MadCAM-1 extracellular domain-coated plate; endogenous in cells; host or cells: RPMI8866 cells
T1 sequence (P13612 34-1032): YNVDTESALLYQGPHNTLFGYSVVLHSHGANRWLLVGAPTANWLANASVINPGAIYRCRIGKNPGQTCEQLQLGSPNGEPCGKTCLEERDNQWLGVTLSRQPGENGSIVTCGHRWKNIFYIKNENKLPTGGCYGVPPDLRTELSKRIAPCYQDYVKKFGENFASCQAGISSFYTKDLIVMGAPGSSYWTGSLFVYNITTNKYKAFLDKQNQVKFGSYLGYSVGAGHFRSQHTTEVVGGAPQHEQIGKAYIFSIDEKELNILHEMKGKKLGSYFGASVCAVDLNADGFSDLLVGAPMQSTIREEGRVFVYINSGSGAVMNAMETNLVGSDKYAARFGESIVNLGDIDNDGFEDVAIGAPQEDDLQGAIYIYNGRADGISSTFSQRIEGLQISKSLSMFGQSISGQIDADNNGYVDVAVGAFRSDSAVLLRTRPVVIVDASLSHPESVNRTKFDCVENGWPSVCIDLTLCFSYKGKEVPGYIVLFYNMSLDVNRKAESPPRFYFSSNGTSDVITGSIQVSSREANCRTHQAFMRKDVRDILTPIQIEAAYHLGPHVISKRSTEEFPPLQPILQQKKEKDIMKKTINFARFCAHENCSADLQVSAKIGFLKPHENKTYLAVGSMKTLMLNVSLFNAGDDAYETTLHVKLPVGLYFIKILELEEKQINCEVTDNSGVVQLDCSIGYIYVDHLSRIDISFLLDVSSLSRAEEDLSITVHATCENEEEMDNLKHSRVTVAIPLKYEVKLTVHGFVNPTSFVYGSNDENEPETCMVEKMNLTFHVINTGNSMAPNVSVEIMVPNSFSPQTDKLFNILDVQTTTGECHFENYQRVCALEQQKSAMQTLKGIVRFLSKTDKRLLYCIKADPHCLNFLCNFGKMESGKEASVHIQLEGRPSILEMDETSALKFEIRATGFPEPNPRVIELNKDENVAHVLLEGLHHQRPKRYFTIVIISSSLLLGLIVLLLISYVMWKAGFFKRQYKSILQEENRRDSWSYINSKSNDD
T1 sequence (P26010 20-798): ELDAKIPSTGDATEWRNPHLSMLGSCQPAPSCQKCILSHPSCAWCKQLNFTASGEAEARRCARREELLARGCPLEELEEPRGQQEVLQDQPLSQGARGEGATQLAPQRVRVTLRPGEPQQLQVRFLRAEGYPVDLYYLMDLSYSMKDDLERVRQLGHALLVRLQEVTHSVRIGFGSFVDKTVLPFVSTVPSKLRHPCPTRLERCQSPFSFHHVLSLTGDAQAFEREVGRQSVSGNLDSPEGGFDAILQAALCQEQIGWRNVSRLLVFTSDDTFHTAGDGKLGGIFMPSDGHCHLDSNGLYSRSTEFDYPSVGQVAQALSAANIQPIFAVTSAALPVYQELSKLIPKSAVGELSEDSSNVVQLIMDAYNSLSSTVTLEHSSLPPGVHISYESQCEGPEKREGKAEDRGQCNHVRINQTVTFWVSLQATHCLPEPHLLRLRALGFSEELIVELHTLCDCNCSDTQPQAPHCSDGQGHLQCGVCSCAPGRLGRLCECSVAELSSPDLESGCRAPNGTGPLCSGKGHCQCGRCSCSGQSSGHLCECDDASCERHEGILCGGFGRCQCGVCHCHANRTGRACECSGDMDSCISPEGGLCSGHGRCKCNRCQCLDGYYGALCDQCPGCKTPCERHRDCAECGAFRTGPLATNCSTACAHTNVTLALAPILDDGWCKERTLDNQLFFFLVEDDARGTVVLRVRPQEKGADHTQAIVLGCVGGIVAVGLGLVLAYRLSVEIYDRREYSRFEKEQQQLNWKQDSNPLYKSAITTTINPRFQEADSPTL
Outline: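 RPMI8866 cells in DMEM + 0.5% FBS + 0.5 mM MnCl2 preincubated with compound 1 h at 37 °C, then allowed to bind 30 min at 37 °C to plates coated with MAdCAM-1 extracellular domain (1.0 μg/mL). Cells fixed with glutaraldehyde, Hoechst-stained, imaged and bound cells counted; EC50 from cell count versus concentration.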

SMILES	pEC50
CCOCc1cc(OC)c(-c2ccc(C[C@H](NC(=O)c3c(F)cccc3F)C(=O)O)c3nccc(Cl)c23)c(OC)c1 [Example 93, (S)-3-(4-chloro-5-(4-(ethoxymethyl)-2,6-dimethoxyphenyl)quinolin-8-yl)-2-(2,6-difluorobenzamido)propanoic acid]	7.57
COc1cc(F)c(F)cc1-c1ccc(C[C@H](NC(=O)c2c(Cl)cccc2Cl)C(=O)O)c2nccc(Cl)c12 [Example 94, (S)-3-(4-chloro-5-(4,5-difluoro-2-methoxyphenyl)quinolin-8-yl)-2-(2,6-dichlorobenzamido)propanoic acid]	6.96
COc1cc(F)c(F)cc1-c1ccc(C[C@H](NC(=O)c2c(Cl)cccc2Cl)C(=O)O)c2nccc(C)c12 [Example 97, (S)-2-(2,6-dichlorobenzamido)-3-(5-(4,5-difluoro-2-methoxyphenyl)-4-methylquinolin-8-yl)propanoic acid]	7.01
Cc1ccnc2c(C[C@H](NC(=O)c3c(Cl)cccc3Cl)C(=O)O)ccc(-c3cc4ccccc4n(C)c3=O)c12 [Example 100, (S)-2-(2,6-dichlorobenzamido)-3-(1,4′-dimethyl-2-oxo-1,2-dihydro-[3,5′-biquinolin]-8′-yl)propanoic acid]	7.65
COc1cccc(OC)c1-c1ccc(C[C@H](NC(=O)c2c(F)cc(NS(=O)(=O)c3ccc(-c4ccnc(F)c4)cc3)cc2F)C(=O)O)c2ncccc12 [Example 101, (S)-2-(2,6-difluoro-4-((4-(2-fluoropyridin-4-yl)phenyl)sulfonamido)benzamido)-3-(5-(2,6-dimethoxyphenyl)quinolin-8-yl)propanoic acid]	8.77
CCOCc1cc(OC)c(-c2ccc(C[C@H](NC(=O)c3c(F)cc(NS(=O)(=O)c4ccc(-c5ccnc(F)c5)cc4)cc3F)C(=O)O)c3ncccc23)c(OC)c1 [Example 102, (S)-2-(2,6-difluoro-4-((4-(2-fluoropyridin-4-yl)phenyl)sulfonamido)benzamido)-3-(5-(4-(ethoxymethyl)-2,6-dimethoxyphenyl)quinolin-8-yl)propanoic acid]	9.00
COc1cccc(OC)c1-c1ccc(C[C@H](NC(=O)c2c(F)cc(NS(=O)(=O)c3ccc(-c4ccnc(F)c4)cc3)cc2F)C(=O)O)c2ccccc12 [Example 103, (S)-2-(2,6-difluoro-4-((4-(2-fluoropyridin-4-yl)phenyl)sulfonamido)benzamido)-3-(4-(2,6-dimethoxyphenyl)naphthalen-1-yl)propanoic acid]	8.72
COc1cccc(OC)c1-c1ccc(C[C@H](NC(=O)c2c(F)cc(NS(=O)(=O)c3ccc(-n4cncn4)cc3)cc2F)C(=O)O)c2ccccc12 [Example 104, (S)-2-(4-((4-(1H-1,2,4-triazol-1-yl)phenyl)sulfonamido)-2,6-difluorobenzamido)-3-(4-(2,6-dimethoxyphenyl)naphthalen-1-yl)propanoic acid]	9.10
CCOCc1cc(OC)c(-c2ccc(C[C@H](NC(=O)c3c(F)cc(NS(=O)(=O)c4ccc(-c5ccnc(F)c5)cc4)cc3F)C(=O)O)c3ccccc23)c(OC)c1 [Example 105, (S)-2-(2,6-difluoro-4-((4-(2-fluoropyridin-4-yl)phenyl)sulfonamido)benzamido)-3-(4-(4-(ethoxymethyl)-2,6-dimethoxyphenyl)naphthalen-1-yl)propanoic acid]	9.10
O=C(N[C@@H](Cc1ccc(-c2c(Cl)cc(F)cc2Cl)c2ccccc12)C(=O)O)c1c(F)cccc1F [Example 106, (S)-3-(4-(2,6-dichloro-4-fluorophenyl)naphthalen-1-yl)-2-(2,6-difluorobenzamido)propanoic acid]	6.71
O=C(N[C@@H](Cc1ccc(-c2c(Cl)cc(F)cc2Cl)c2ccccc12)C(=O)O)c1c(Cl)cccc1Cl [Example 107, (S)-3-(4-(2,6-dichloro-4-fluorophenyl)naphthalen-1-yl)-2-(2,6-dichlorobenzamido)propanoic acid]	6.86
Cn1c(=O)c(-c2ccc(C[C@H](NC(=O)c3c(Cl)cccc3Cl)C(=O)O)c3ccccc23)cc2ccccc21 [Example 108, (S)-2-(2,6-dichlorobenzamido)-3-(4-(1-methyl-2-oxo-1,2-dihydroquinolin-3-yl)naphthalen-1-yl)propanoic acid]	8.47
O=C(N[C@@H](Cc1ccc(-c2cccc3c2OCCC3)c2ccccc12)C(=O)O)c1c(Cl)cccc1Cl [Example 111, (S)-3-(4-(chroman-8-yl)naphthalen-1-yl)-2-(2,6-dichlorobenzamido) propanoic acid]	7.12
O=C(N[C@@H](Cc1ccc(-c2cccc3c2OCCC3)c2ccccc12)C(=O)O)c1c(F)cccc1F [Example 112, (S)-3-(4-(chroman-8-yl)naphthalen-1-yl)-2-(2,6-difluorobenzamido) propanoic acid]	7.27
O=C(N[C@@H](Cc1ccc(-c2ncc3ccccc3c2Br)c2ccccc12)C(=O)O)c1c(Cl)cccc1Cl [Example 113, (S)-3-(4-(4-bromoisoquinolin-3-yl)naphthalen-1-yl)-2-(2,6-dichlorobenzamido) propanoic acid]	7.91
O=C(N[C@@H](Cc1ccc(-c2ncc3ccccc3c2Br)c2ccccc12)C(=O)O)c1c(F)cccc1F [Example 114, (S)-3-(4-(4-bromoisoquinolin-3-yl)naphthalen-1-yl)-2-(2,6-difluorobenzamido)propanoic acid]	7.52
O=C(N[C@@H](Cc1ccc(-c2ncc3ccccc3c2C(F)(F)F)c2ccccc12)C(=O)O)c1c(Cl)cccc1Cl [Example 115, (S)-2-(2,6-dichlorobenzamido)-3-(4-(4-(trifluoromethyl)isoquinolin-3-yl)naphthalen-1-yl)propanoic acid]	7.66
O=C(N[C@@H](Cc1ccc(-c2cc(F)c(F)cc2OC2CC2)c2ccccc12)C(=O)O)c1c(Cl)cccc1Cl [Example 116, (S)-3-(4-(2-cyclopropoxy-4,5-difluorophenyl)naphthalen-1-yl)-2-(2,6-dichlorobenzamido)propanoic acid]	7.14
Cn1c(=O)c(-c2ccc(C[C@H](NC(=O)c3c(Cl)cccc3Cl)C(=O)O)c3ccccc23)c(C(F)(F)F)c2ccccc21 [Example 121, (S)-2-(2,6-dichlorobenzamido)-3-(4-(1-methyl-2-oxo-4-(trifluoromethyl)-1,2-dihydroquinolin-3-yl)naphthalen-1-yl)propanoic acid]	8.41
Cc1ccnc(-c2ccc(C[C@H](NC(=O)c3c(F)cc(N4CCOC[C@@H]4C(F)(F)F)cc3F)C(=O)O)c3ccccc23)c1C(F)(F)F [Example 122]	8.96
CC[C@@H](Nc1cc(F)c(C(=O)N[C@@H](Cc2ccc(-c3nccc(C)c3C(F)(F)F)c3ccccc23)C(=O)O)c(F)c1)C(F)(F)F [Example 123, (S)-2-(2,6-difluoro-4-(((R)-1,1,1-trifluorobutan-2-yl)amino)benzamido)-3-(4-(4-methyl-3-(trifluoromethyl)pyridin-2-yl)naphthalen-1-yl)propanoic acid]	7.99
